Measured values from PubChem BioAssay AID248 (DTP/NCI, 2004).
Values joined by “and” are separate entries in the source; they are usually repeats but may differ in a detail not shown here. Equal values may be shown once. Toxic doses and inconclusive results are not listed. No stated cut-off is given here; in the data, active means T/C of 150% or more; inactive means T/C below 125%.

Tested on: L1210 leukemia ip in BDF1 mice, survival T/C
Assay: NCI In Vivo Anticancer Drug Screen. Data for tumor model L1210 Leukemia (intraperitoneal) in B6D2F1 (BDF1) mice
Details: endpoint: mean survival time, higher = longer survival
Summary of the method: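 Transplantable tumor model; survival measured in treated vs vehicle control mice. Value = treated/control.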

[1] = dose: 100.0 mg/kg/injection, schedule: Q04DX003 (ip), vehicle: Klucel (hydroxypropylcellulose) (HPC)
[2] = dose: 200.0 mg/kg/injection, schedule: Q04DX003 (ip), vehicle: Klucel (hydroxypropylcellulose) (HPC)
[3] = dose: 400.0 mg/kg/injection, schedule: Q04DX003 (ip), vehicle: Klucel (hydroxypropylcellulose) (HPC)
[4] = dose: 100.0 mg/kg/injection, schedule: Q01DX001 (ip), vehicle: saline
[5] = dose: 200.0 mg/kg/injection, schedule: Q01DX001 (ip), vehicle: saline
[6] = dose: 400.0 mg/kg/injection, schedule: Q01DX001 (ip), vehicle: saline

Measured: T/C

Clc1ccc([PH+](c2ccc(Cl)cc2)c2ccc(Cl)cc2)cc1.Clc1ccc([PH+](c2ccc(Cl)cc2)c2ccc(Cl)cc2)cc1.[Cl][Hg][Cl]
inactive: dose: 6.25 mg/kg/injection, schedule: Q01DX009 (ip), vehicle: Klucel (hydroxypropylcellulose) (HPC) 108 % of control | dose: 12.5 mg/kg/injection, schedule: Q01DX009 (ip), vehicle: Klucel (hydroxypropylcellulose) (HPC) 94 % of control | dose: 25.0 mg/kg/injection, schedule: Q01DX009 (ip), vehicle: Klucel (hydroxypropylcellulose) (HPC) 97 % of control | dose: 50.0 mg/kg/injection, schedule: Q01DX009 (ip), vehicle: Klucel (hydroxypropylcellulose) (HPC) 96 % of control

O=C(/C=C\c1ccc(C(=O)Nc2ccc(C3=NCCN3)cc2)cc1)Nc1ccc(C2=NCCN2)cc1
inactive: dose: 6.0 mg/kg/injection, schedule: Q01DX Z (ip), vehicle: water 110 % of control | dose: 11.0 mg/kg/injection, schedule: Q01DX Z (ip), vehicle: water 102 % of control | dose: 15.0 mg/kg/injection, schedule: Q01DX Z (ip), vehicle: saline 114 % of control | dose: 22.0 mg/kg/injection, schedule: Q01DX Z (ip), vehicle: water 104 % of control | dose: 30.0 mg/kg/injection, schedule: Q01DX Z (ip), vehicle: saline 120 % of control | dose: 45.0 mg/kg/injection, schedule: Q01DX Z (ip), vehicle: water 107 % of control | dose: 60.0 mg/kg/injection, schedule: Q01DX Z (ip), vehicle: saline 122 % of control | dose: 120.0 mg/kg/injection, schedule: Q01DX Z (ip), vehicle: saline 113 % of control | dose: 240.0 mg/kg/injection, schedule: Q01DX Z (ip), vehicle: saline 117 % of control | dose: 480.0 mg/kg/injection, schedule: Q01DX Z (ip), vehicle: saline 103 % of control

CCOC(=O)C(C[N+](C)(CC)CC)c1ccccc1 (stereo unspecified)
inactive: dose: 88.8 mg/kg/injection, schedule: Q01DX001 (ip), vehicle: carboxymethylcellulose (CMC) 97 % of control and 102 % of control | dose: 100.0 mg/kg/injection, schedule: Q01DX001 (ip), vehicle: carboxymethylcellulose (CMC) 113 % of control | dose: 133.0 mg/kg/injection, schedule: Q01DX001 (ip), vehicle: carboxymethylcellulose (CMC) 105 % of control and 114 % of control | dose: 200.0 mg/kg/injection, schedule: Q01DX001 (ip), vehicle: carboxymethylcellulose (CMC) 107 % of control and 118 % of control | dose: 300.0 mg/kg/injection, schedule: Q01DX001 (ip), vehicle: carboxymethylcellulose (CMC) 95 % of control and 104 % of control | dose: 400.0 mg/kg/injection, schedule: Q01DX001 (ip), vehicle: carboxymethylcellulose (CMC) 98 % of control

c1ccc2c(C(CCN3CCOCC3)(CCN3CCOCC3)CNC3=NCCN3)cccc2c1
inactive: dose: 12.5 mg/kg/injection, schedule: Q01DX009 (ip), vehicle: saline 105 % of control | dose: 25.0 mg/kg/injection, schedule: Q01DX009 (ip), vehicle: saline with Tween-80 103 % of control | dose: 25.0 mg/kg/injection, schedule: Q01DX009 (ip), vehicle: saline 109 % of control | dose: 50.0 mg/kg/injection, schedule: Q01DX009 (ip), vehicle: saline 111 % of control

Cc1c([N+](=O)[O-])ccc2ccccc12
inactive: dose: 100.0 mg/kg/injection, schedule: Q01DX001 (ip), vehicle: other 103 % of control | [1] 108 % of control | dose: 200.0 mg/kg/injection, schedule: Q01DX001 (ip), vehicle: other 98 % of control | [2] 101 % of control | dose: 400.0 mg/kg/injection, schedule: Q01DX001 (ip), vehicle: other 103 % of control | [3] 100 % of control

CCCCCCCCCCCC(=O)N(C)C
inactive: [1] 109 % of control | [2] 111 % of control | [3] 109 % of control

C1CCC(C2CCC(C3CCCCC3)CC2)CC1 (stereo unspecified)
inactive: [4] 90 % of control | [5] 90 % of control

CC(C)(C)c1cc(O)c(C(C)(C)C)cc1O
inactive: dose: 50.0 mg/kg/injection, schedule: Q01DX001 (ip), vehicle: saline 90 % of control | [4] 96 % of control | dose: 100.0 mg/kg/injection, schedule: Q04DX002 (ip), vehicle: gum acacia 106 % of control | [5] 94 % of control | dose: 200.0 mg/kg/injection, schedule: Q04DX002 (ip), vehicle: gum acacia 106 % of control | [6] 98 % of control | dose: 400.0 mg/kg/injection, schedule: Q04DX002 (ip), vehicle: gum acacia 108 % of control

CCC(CC)c1cccc2c(C(CC)CC)cccc12
inactive: [4] 98 % of control | [5] 96 % of control | [6] 96 % of control

CCSc1nc(C2NC(C(=O)O)CS2)cc(=O)[nH]1 (stereo unspecified)
inactive: dose: 50.0 mg/kg/injection, schedule: Q01DX001 (ip), vehicle: Klucel (hydroxypropylcellulose) (HPC) 98 % of control | dose: 100.0 mg/kg/injection, schedule: Q01DX001 (ip), vehicle: Klucel (hydroxypropylcellulose) (HPC) 98 % of control | dose: 200.0 mg/kg/injection, schedule: Q01DX001 (ip), vehicle: Klucel (hydroxypropylcellulose) (HPC) 97 % of control

Cc1cc([N+](=O)[O-])c(P(=O)(O)O)cc1Cl
inactive: dose: 75.0 mg/kg/injection, schedule: Q01DX001 (ip), vehicle: saline 93 % of control | dose: 150.0 mg/kg/injection, schedule: Q01DX001 (ip), vehicle: saline 91 % of control | dose: 300.0 mg/kg/injection, schedule: Q01DX001 (ip), vehicle: saline 96 % of control
